Data on 30 molecules can be found in patent US20050032187A1, “Novel peptide-forming enzyme, microbe producing the enzyme and method for producing peptide using them” (Ajinomoto Co., Inc., priority 2003, published 2005).

The chains are these.
B1: Papain: thiol endopeptidase described in EP 359399B1, purified enzyme manufactured by Sigma (protein, UniProt P00784 134-345, looked up)
Papain: IPEYVDWRQKGAVTPVKNQGSCGSCWAFSAVVTIEGIIKIRTGNLNEYSEQELLDCDRRSYGCNGGYPWSALQLVAQYGIHYRNTYPYEGVQRYCRSREKGPYAAKTDGVRQVQPYNEGALLYSIANQPVSVVLEAAGKDFQLYRGGIFVGPCGNKVDHAVAAVGYGPNYILIKNSWGTGWGENGYIRIKRGTGNSYGVCGLYTSSFYPVKN
B2: Carboxypeptidase Y: known enzyme described in EP 278787A1, purified enzyme manufactured by Sigma (protein, UniProt P00729 112-532, looked up)
Carboxypeptidase Y: KIKDPKILGIDPNVTQYTGYLDVEDEDKHFFFWTFESRNDPAKDPVILWLNGGPGCSSLTGLFFELGPSSIGPDLKPIGNPYSWNSNATVIFLDQPVNVGFSYSGSSGVSNTVAAGKDVYNFLELFFDQFPEYVNKGQDFHIAGESYAGHYIPVFASEILSHKDRNFNLTSVLIGNGLTDPLTQYNYYEPMACGEGGEPSVLPSEECSAMEDSLERCLGLIESCYDSQSVWSCVPATIYCNNAQLAPYQRTGRNVYDIRKDCEGGNLCYPTLQDIDDYLNQDYVKEAVGAEVDHYESCNFDINRNFLFAGDWMKPYHTAVTDLLNQDLPILVYAGDKDFICNWLGNKAWTDVLPWKYDEEFASQKVRNWTASITDEVAGEVKSYKHFTYLRVFNGGHMVPFDVPENALSMVNEWIHGGFSL

Residues, ends and D or L forms follow the SMILES beside them.

One assay deals with Sphingobacterium sp. strain FERM BP-8124 microbial cells. Put plainly: Production of L-alanyl-L-glutamine using microbial cells of Sphingobacterium sp. The class given is cell-based. The note with it: 0.1 mL of 100 g/L cell suspension + 0.1 mL buffer with 200 mM L-alanyl methyl ester hydrochloride and 400 mM L-glutamine, pH 9.0, 25° C., 120 minutes. As to the method:
A 50 ml medium (pH 7.0) containing 5 g of glucose, 5 g of ammonium sulfate, 1 g of monopotassium phosphate, 3 g of dipotassium phosphate, 0.5 g of magnesium sulfate, 10 g of yeast extract and 10 g of peptone in 1 L was transferred to a 500 mL Sakaguchi flask and sterilized at 115° C. for 15 minutes for culturing Sphingobacterium sp. strain FERM BP-8124 (Depositary institution: National Institute for Advanced Industrial Science and Technology, International Patent Organism Depositary, Address of depositary institution: Chuo Dai-6,1-1 Higashi 1-Chome, Tsukuba-shi, Ibaraki-ken, Japan, International deposit date: Jul. 22, 2002). This medium was then inoculated with one loopful of Sphingobacterium sp. strain FERM BP-8124 (Depositary institution: National Institute for Advanced Industrial Science and Technology, International Patent Organism Depositary, Address of depositary institution: Chuo Dai-6,1-1 Higashi 1-Chome, Tsukuba-shi, Ibaraki-ken, Japan, International deposit date: Jul. 22, 2002) cultured at 30° C. for 24 hours in a slant agar medium (agar: 20 g/L, pH 7.0) containing 5 g of glucose, 10 g of yeast extract, 10 g of peptone and 5 g of NaCl in 1 L, followed by shake culturing at 30° C. for 20 hours and 120 strokes/minute. A 1 ml aliquot of this culture broth was then added to the aforementioned medium (50 ml/500 mL Sakaguchi flask) and cultured at 30° C. for 18 hours. […]
Regarding `C[C@H](N)C(=O)N[C@@H](CCC(N)=O)C(=O)O` [L-Ala-L-Gln, L-alanyl-L-glutamine] (H-Ala-Gln-OH), the “amount of L-alanyl-L-glutamine produced” value is 62 mM.

Another assay has as its system enzyme (SP-Sepharose HP fraction) derived from Sphingobacterium sp. strain FERM BP-8124.
Experiment: not given
Conditions: Table 15-2; carboxy 100 mM, L-Gln 150 mM, 0.33 units, pH 9.0, 25° C., 1.5 hours; 0.1% Tween-80 with L-Tyr-OMe. The class given is biochemical. Here is the method:
The following procedure after centrifugal separation was carried out either on ice or at 4° C. Sphingobacterium sp. strain FERM BP-8124 (Depositary institution: National Institute for Advanced Industrial Science and Technology, International Patent Organism Depositary, Address of depositary institution: Chuo Dai-6,1-1 Higashi 1-Chome, Tsukuba-shi, Ibaraki-ken, Japan, International deposit date: Jul. 22, 2002) was cultured in the same manner as Example 21, and the microbial cells were collected by centrifugal separation (10,000 rpm, 15 minutes). After washing 2 g of microbial cells with 20 mM Tris-HCl buffer (pH 7.6), they were suspended in 8 ml of the same buffer and subjected to ultrasonic crushing treatment for 45 minutes at 195 W. This ultrasonic crushing liquid was then centrifuged (10,000 rpm, 30 minutes) to remove the crushed cell fragments and obtain an ultrasonic crushing liquid supernatant. This ultrasonic crushing liquid supernatant was dialyzed overnight against 20 mM Tris-HCl buffer (pH 7.6) followed by removal of the insoluble fraction by ultracentrifugation (50,000 rpm, 30 minutes) to obtain a soluble fraction in the form of the supernatant liquid. The resulting soluble fraction was applied to a Q-Sepharose HP column (manufactured by Amersham) pre-equilibrated with Tris-HCl buffer (pH 7.6), and the active fraction was collected from the non-adsorbed fraction. This active fraction was dialyzed overnight against 20 mM acetate buffer (pH 5.0) followed by removal of the insoluble fraction by centrifugal separation (10,000 rpm, 30 minutes) to obtain a dialyzed fraction in the form of the supernatant liquid. This dialyzed fraction was then applied to an SP-Sepharose HP column (manufactured by Amersham) pre-equilibrated with 20 mM acetate buffer (pH 5.0) to obtain the active fraction in which enzyme was eluted at a linear concentration gradient of the same buffer containing 0 tol M NaCl.
Substrate specificity was examined for enzyme derived from Sphingobacterium sp. strain FERM BP-8124 (Depositary institution: National Institute for Advanced Industrial Science and Technology, International Patent Organism Depositary, Address of depositary institution: Central. 6, 1-1-1 Higashi, Tsukuba City, Ibaraki Prefecture, Japan, International deposit date: Jul. 22, 2002). 100 μl of 100 mM borate buffer (pH 9.0) containing the various carboxy components at a final concentration of 100 mM and the various amine components at a final concentration of 150 mM shown in Tables 15-1 to 15-4, the SP-Sepharose HP fraction enzyme purified in Example 22 (addition of 0.33 units in the reaction liquid) and 10 mM EDTA were allowed to react at 25° C. for 1.5 hours.
In addition, hydrochlorides were used for all carboxy components. […]
For `NC(=O)CC[C@H](NC(=O)[C@@H](N)CCC(N)=O)C(=O)O` [L-Gln-L-Gln] (H-Gln-Gln-OH), the “Produced peptide” value turned out to be 0.1 mM.

For the molecule `C[C@@H](O)[C@H](N)C(=O)N[C@@H](CCC(N)=O)C(=O)O` [L-Thr-L-Gln] (H-Thr-Gln-OH), the “Produced peptide” value amounted to 36.1 mM.

Turning to `CC[C@H](C)[C@H](N)C(=O)N[C@@H](CCC(N)=O)C(=O)O` [L-Ile-L-Gln] (H-Ile-Gln-OH), the “Produced peptide” value stood at 6.4 mM.

As for `NC(=O)CC[C@H](NC(=O)[C@@H](N)Cc1ccccc1)C(=O)O` [L-Phe-L-Gln], the “Produced peptide” value is recorded as 0.8 mM.

As to `CSCC[C@H](N)C(=O)N[C@@H](CCC(N)=O)C(=O)O` [L-Met-L-Gln] (H-Met-Gln-OH), the “Produced peptide” value was 32.6 mM.

With `NC(=O)CC[C@H](NC(=O)[C@@H]1CCCN1)C(=O)O` [L-Pro-L-Gln] (H-Pro-Gln-OH), the “Produced peptide” value is 1.8 mM.

As to `CC(C)[C@H](N)C(=O)N[C@@H](CCC(N)=O)C(=O)O` [L-Val-L-Gln] (H-Val-Gln-OH), the “Produced peptide” value turned out to be 8.2 mM.

In the case of `NC(=O)CC[C@H](NC(=O)[C@@H](N)CO)C(=O)O` [L-Ser-L-Gln] (H-Ser-Gln-OH), the “Produced peptide” value is 12.9 mM.

In the case of `NC(=O)CC[C@H](NC(=O)[C@@H](N)CC(=O)O)C(=O)O` [α-L-Asp-L-Gln] (H-Asp-Gln-OH), the “Produced peptide” value is recorded as 0.05 mM.

With `NC(=O)CC[C@H](NC(=O)[C@@H](N)Cc1ccc(O)cc1)C(=O)O` [L-Tyr-L-Gln] (H-Tyr-Gln-OH), the “Produced peptide” value amounted to 0.6 mM.

For the molecule `NC(=O)CC[C@H](NC(=O)[C@@H](N)CCCN=C(N)N)C(=O)O` [L-Arg-L-Gln] (H-Arg-Gln-OH), the “Produced peptide” value stood at 17.2 mM.

For `NCC(=O)N[C@@H](CCC(N)=O)C(=O)O` [Gly-L-Gln] (H-Gly-Gln-OH), the “Produced peptide” value amounted to 61.1 mM.

For a further assay, the system named is Empedobacter brevis strain FERM BP-8113 microbial cells. The assay is described as follows: Production of peptide using microbial cells of Empedobacter brevis. The class given is cell-based. Conditions: 1 mL of 100 g/L cell suspension + 1 mL buffer with 200 mM carboxy component (HCl salt) and 400 mM amino acid, 10 mM EDTA, pH 9.0, 18° C., 2 hours. Here is the method: Although the following provides a more detailed explanation of the present invention through its examples, the present invention is not limited to these examples. In addition to confirmation by ninhydrin coloring of thin-film chromatograms (qualitative), quantitative determinations were made by the following high-performance liquid chromatography in order to assay products. Column: […] ODS-2 (manufactured by GL Science, Inc.), eluate: aqueous phosphate solution containing 5.0 mM sodium 1-octanesulfonate (pH 2.1): methanol=100: 15 to 50, flow rate: 1.0 mL/min, detection: 210 nanometers (hereinafter, “nm”). A 50 mL medium (pH 6.2) containing 5 grams (hereinafter, “g”) of glucose, 5 g of ammonium sulfate, 1 g of monopotassium phosphate, 3 g of dipotassium phosphate, 0.5 g of magnesium sulfate, 10 g of yeast extract and 10 g of peptone in 1 liter (hereinafter, “L”) was transferred to a 500 mL Sakaguchi flask and sterilized at 115° C. for 15 minutes. This medium was then inoculated with one loopful of the culture broth of Empedobacter brevis strain FERM BP-8113 (Depositary institution: National Institute for Advanced Industrial Science and Technology, International Patent Organism Depositary, Address of depositary institution: Chuo Dai-6,1-1 Higashi 1-Chome, Tsukuba-shi, Ibaraki-ken, Japan, International deposit transfer date: Jul. 8, 2002) that had been cultured at 30° C. for 16 hours in the same medium, followed by shake culturing at 30° C. for 16 hours and 120 strokes/min.
As to `CC[C@H](C)[C@H](N)C(=O)N[C@@H](CCSC)C(=O)O` [L-Ile-L-Met] (H-Ile-Met-OH), the “Formed peptide” value stood at 8.3 mM.

As for `CSCC[C@H](N)C(=O)N[C@@H](Cc1ccccc1)C(=O)O` [L-Met-L-Phe] (H-Met-Phe-OH), the “Formed peptide” value is recorded as 28.5 mM.

Consider `N[C@@H](CO)C(=O)N[C@@H](CO)C(=O)O` [L-Ser-L-Ser] (H-Ser-Ser-OH), for which the “Formed peptide” value worked out at 29.0 mM.

As for `CSCC[C@H](NC(=O)[C@H](C)N)C(=O)O` [L-Ala-L-Met] (H-Ala-Met-OH), the “Formed peptide” value worked out at 68.3 mM.

On to `C[C@H](N)C(=O)N[C@@H](CO)C(=O)O` [L-Ala-L-Ser] (H-Ala-Ser-OH), for which the “Formed peptide” value came out at 51.3 mM.

With `C[C@H](N)C(=O)N[C@@H](Cc1cnc[nH]1)C(=O)O` [L-Ala-L-His] (H-Ala-His-OH), the “Formed peptide” value came out at 52.1 mM.

For `CSCC[C@H](NC(=O)[C@@H](N)C(C)C)C(=O)O` [L-Val-L-Met] (H-Val-Met-OH), the “Formed peptide” value stood at 10.5 mM.

In the case of `CC(C)C[C@H](NC(=O)[C@H](C)N)C(=O)O` [L-Ala-L-Leu] (H-Ala-Leu-OH), the “Formed peptide” value was 38.2 mM.

In the case of `C[C@H](N)C(=O)N[C@@H](CCC(N)=O)C(=O)O` [L-Ala-L-Gln, L-alanyl-L-glutamine] (H-Ala-Gln-OH), the “Formed peptide” value is 68.0 mM.

As to `CC(C)C[C@H](NC(=O)[C@@H](N)[C@@H](C)O)C(=O)O` [L-Thr-L-Leu] (H-Thr-Leu-OH), the “Formed peptide” value is recorded as 23.0 mM.

In the case of `C[C@H](N)C(=O)N[C@@H](Cc1ccccc1)C(=O)O` [L-Ala-L-Phe], the “Formed peptide” value was found to be 62.4 mM.

As to `NCC(=O)N[C@@H](Cc1cnc[nH]1)C(=O)O` [Gly-L-His] (H-Gly-His-OH), the “Formed peptide” value was found to be 22.1 mM.

Take `C[C@H](N)C(=O)N[C@@H](CCCN=C(N)N)C(=O)O` [L-Ala-L-Arg] (H-Ala-Arg-OH): the “Formed peptide” value is on record as 72.1 mM.

Tested on in a further assay: not listed separately
The assay is described as follows: Comparison of ability to catalyze peptide production with known enzymes. The note with it: 100 mM L-alanine methyl ester, 200 mM L-glutamine, pH 9.0, 25° C.; amount of enzyme added as in Table 14.
Procedure: The peptide formation ability of the present enzyme was compared with that of known enzymes. Carboxypeptidase Y described in EP 278787A1 and the thiol endopeptidases (ficin, papain, bromelain and chymopapain) described in EP 359399B1 were used for the known enzymes, and they were used in the form of purified enzymes manufactured by Sigma. […] The reaction was carried out by adding enzyme to 100 μl of borate buffer (pH 9.0) containing 100 mM L-alanine methyl ester and 200 mM L-glutamine and allowing to react at 25° C.
Furthermore, enzyme dissolved in 10 mM acetate buffer (pH 5.0) containing 1 mM EDTA was used for the carboxypeptidase, while enzyme dissolved in 10 mM acetate buffer (pH 5.0) containing 2 mM EDTA, 0.1 M KCl and 5 mM dithiothreitol was used for the thiol endopeptidase.
Consider “Chymopapain: thiol endopeptidase described in EP 359399B1, purified enzyme manufactured by Sigma”, for which the “L-Ala-L-Gln production rate (mM/mm)” value is on record as 0.0100 mM/mm.

For the molecule Bromelain, the “L-Ala-L-Gln production rate (mM/mm)” value is on record as 0.0062 mM/mm.

As to Ficin, the “L-Ala-L-Gln production rate (mM/mm)” value was 0.0096 mM/mm.

As to B1, the “L-Ala-L-Gln production rate (mM/mm)” value is 0.0106 mM/mm.

For the molecule B2, the “L-Ala-L-Gln production rate (mM/mm)” value was found to be 0.0257 mM/mm.
